The values below come from patent US9353084B2, “2-amino 3,5,5-trifluoro-3,4,5,6-tetrahydropyridines as BACE1 inhibitors for treatment of Alzheimer's disease” (H. Lundbeck A/S, priority 2014, dated 2016).

The subject of one series is Aβ40. Nature of the series: Assessment of Aβ40 levels in rat brain and plasma following BACE1 inhibition (ELISA). The series is classed as in vivo. Particulars: 3 hours post dose, vs vehicle. The protocol: (§1) Young adult Male Sprague Dawley rats of approximately 250 g weight were purchased from Charles River and received 0-30 mg/kg of vehicle (10% HP betaCD+1M MeSO4, pH 2.5) or test compounds (dissolved in vehicle) only by oral gavage (p.o). The compounds are dosed at a volume of 5 ml/kg. Cohorts of 5-10 animals were established for each treatment condition.
(§2) At T=180 minutes after initial dosing the animals were stunned and decapitated with a guillotine. Trunk-blood was sampled in EDTA coated tubes after decapitation of the animal. The blood was centrifuged at 2200 G at 4° C. for 15 minutes and the plasma was collected and frozen at −80° C. The blood was aliquoted for Aβ ELISA and DMPK analysis Immediately following sacrifice, the brain was extracted and split into 2 halves. The right hemibrains were snap frozen on dry ice and stored at −80° C. The left half was dissected; with the front forebrain taken for Aβ ELISA and the remainder used for DMPK analysis. These samples were also snap frozen on dry ice and stored at −80° C. until use for analysis.
The cortex samples were thawed slightly on wet ice before they were homogenized with a small volume dispersing instrument (T10 basic ULTRA-TURRAX®) which was set at speed 5 for approximately 5-7 sec. The tissue was processed in a 10 times volume of the weight, for example 100 mg of tissue was homogenized in 1000 μL of Homogenization buffer. Homogenization buffer: 50 ml Milli Q water+[…]+0.2% Diethylamin (DEA)+1 tablet of Complete Protease inhibitor cocktail+1 nM 4-(2-aminoethyl)benzenesulfonyl fluoride hydrochloride irreversible serine protease inhibitor (AEBSF).
After homogenization 450 μL aliquots of the samples are collected into a 1.5 ml Eppendorf tube and placed on wet ice, 0.5% NP-40 (50 ul) was added to all samples and then they were incubated on ice for 30 min. After which all samples were sonicated using an Ultrasonic homogenizer with 20 kHz homogeneous sound (SONOPLUS HD2070, Bandelin Electronic) 10 pulse set at 12-13% power to extract all the Aβ species. The samples were then centrifuged (Ole Dich 157 MPRF Micro centrifuge) at 20000 G for 20 minutes at 4° C. After centrifugation 285 μL of the supernatant was pipetted into 600 μL microtubes tubes and neutralized with 15 μL of 1M Tris-HCL buffer.
WAKO 294-62501 Human/Rat Abeta amyloid (40) kit was used for all ELISA analyses. 30 μL plasma samples or 30 μL of the cortex supernatants generated as described above were placed in 600 μL microtubes tubes on wet ice. To this 30 μL of 8M Urea (AppliChem A1049, 9025) are added to generate a 2-fold dilution. Both plasma and cortex supernatants are incubated on ice for 30 min. Standard rows were prepared from the standard peptide stock provided in the kit and standard diluent containing 1.6M Urea (200 μL 8M Urea+800 μL of standard diluent) and 0.8M Urea (400 μL 8M Urea+3600 μL Standard diluent). A serial 2-fold dilution of Aβ40 from 100 pmol/ml to 0 pmol/L was prepared for the assay.
After incubation with urea, all samples were further diluted by addition of 5 times standard diluent from the Kit. This was done by adding 240 μL Standard Diluent to 60 μL sample/urea mixture, which was then mixed well. 100 μL of each diluted sample was pipetted into designated wells of the ELISA plate in duplicates. The plate was then covered and incubated overnight at 4° C. The following day, the ELISA kit was brought to room temperature before use. The incubated plate was washed 5 times with the 20× washing solution diluted in Milli Q water. 100 μL HRP-conjugate was applied to each well, and the plate was covered and incubates at 4° C. for 1 hr. The wash was repeated again for 5 times. 100 μL 3,3′,5,5′-Tetramethylbenzidine (TMB) solution was applied to each well and the plate was covered and incubated in the dark at room temperature for 30 minutes. […]
On the technique in general: An ELISA detects its analyte on a solid surface through an enzyme-linked reagent.

The next series concerns the target human BACE1 (Homo sapiens (Human), UniProt P56817). Nature of the series: BACE1 binding assay (SPA-based, radioligand displacement). Conditions: pH 4.5, Ki calculated from IC50. The method, then:
The binding assay was performed as SPA-based assay using a biotinylated form of human BACE1 recombinantly expressed and subsequently purified from Freestyle HEK293 cells. The binding assay was run in a 50 mM sodium acetate buffer, pH 4.5 containing 50 mM NaCl and 0.03% Tween-20 in white clear bottom 384 plates (Corning #3653). 10 nM (final concentration) radioligand ([^3H]—N-((1S,2R)-1-benzyl-3-cyclopropylamino-2-hydroxy-propyl)-5-(methanesulfonyl-methyl-amino)-N—((R)-1-phenyl-ethyl)-isophthalamide) (TRQ11569 purchased from GE Healthcare) was mixed with test compound at a given concentration, 6 nM (final concentration) human BACE1 and 25 μg Streptavidin coated PVT core SPA beads (RPNQ0007, GE Healthcare Life Sciences) in a total volume of 40 μl. Several concentrations of each test compound were tested in the assay for IC50 determination. The plates were incubated for one hour at room temperature and counted in a Wallac Trilux counter. Total and non-specific binding were determined using buffer and 1 μM (final concentration) of the high affinity BACE1 reference inhibitor (S)-6-[3-chloro-5-(5-prop-1-ynyl-pyridin-3-yl)-thiophen-2-yl]-2-imino-3,6-dimethyl-tetrahydro-pyrimidin-4-one, respectively. For each test compound, a IC50 value (the concentration mediating 50% inhibition of the specific binding of the radioligand) was determined from concentration-response curve and used to calculate the Ki from the equation Ki=IC50/(1+L/Kd), where L and Kd are the final concentration of the radioligand used in the assay and the dissociation constant of the radioligand, respectively. The Kd of the radioligand was determined from saturation binding experiments.

Series [1] in a line: Brain and plasma exposure in rats after oral dosing (DMPK analysis). The series is classed as in vivo. Conditions: male, Sprague Dawley, 3 hours post dose, rat, read-out: Brain/Plasma ratio. The protocol: as §1, §2
Compounds 1, 5, 17, 18, and 24 were administered at doses of 10 or 30 mg/kg p.o. and brain and plasma samples were collected at 3 hours post dose and the following exposures and reductions in Aβ40 levels were measured as described above.

Structures are written as SMILES. Like-named read-outs stand apart in the source and are kept apart here.

Sequence of human BACE1 (P56817 46-501): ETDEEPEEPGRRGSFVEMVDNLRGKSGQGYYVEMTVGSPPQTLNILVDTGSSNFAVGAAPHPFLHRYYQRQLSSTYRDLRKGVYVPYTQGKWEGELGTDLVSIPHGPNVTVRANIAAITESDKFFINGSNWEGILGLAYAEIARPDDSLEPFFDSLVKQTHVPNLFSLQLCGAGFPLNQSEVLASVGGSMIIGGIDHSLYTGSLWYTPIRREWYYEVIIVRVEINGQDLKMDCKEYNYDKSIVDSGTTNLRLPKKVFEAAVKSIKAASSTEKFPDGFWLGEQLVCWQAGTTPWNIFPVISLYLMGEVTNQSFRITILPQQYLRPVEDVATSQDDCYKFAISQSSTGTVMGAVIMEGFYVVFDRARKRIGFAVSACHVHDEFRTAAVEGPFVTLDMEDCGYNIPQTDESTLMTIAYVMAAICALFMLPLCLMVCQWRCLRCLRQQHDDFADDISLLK

As to `Cc1cc(C#N)cnc1C(=O)Nc1ccc(F)c([C@@]2(C)N=C(N)[C@@](C)(F)CC2(F)F)c1` [Compound 18, N-(3-((2R,5S)-6-amino-3,3,5-trifluoro-2,5-dimethyl-2,3,4,5-tetrahydropyridin-2-yl)-4-fluorophenyl)-5-cyano-3-methylpicolinamide], the “Aβ40 reduction, Brain Rat” value stood at 66% in the series with Aβ40 (10 mg/kg p.o.) and 61% with Aβ40 (30 mg/kg p.o.). For the same compound, the “Aβ40 reduction, Plasma Rat” value came out at 54% in the series on Aβ40 (10 mg/kg p.o.) and 50% with Aβ40 (30 mg/kg p.o.). In addition, the inhibition constant Ki on human BACE1 was 4.3 nM. For the same compound, the Kp at 3 h is 0.53 in series [1] (10 mg/kg p.o.) and 0.54 in series [1] (30 mg/kg p.o.).
`COc1ccc(C(=O)Nc2ccc(F)c([C@@]3(C)N=C(N)[C@@](C)(F)CC3(F)F)c2)nc1` [Compound 17, N-(3-((2R,5S)-6-amino-3,3,5-trifluoro-2,5-dimethyl-2,3,4,5-tetrahydropyridin-2-yl)-4-fluorophenyl)-5-methoxypicolinamide]: in the series on Aβ40 (30 mg/kg p.o.), the “Aβ40 reduction, Brain Rat” value is recorded as 63% and the “Aβ40 reduction, Plasma Rat” value amounted to 49%. In addition, the inhibition constant Ki at human BACE1 is 11 nM. For the same compound, the Kp at 3 h in series [1] (30 mg/kg p.o.) is 1.48.
For `COc1cnc(C(=O)Nc2ccc(F)c([C@@]3(C)N=C(N)[C@@](C)(F)CC3(F)F)c2)cn1` [Compound 5, N-(3-((2R,5S)-6-amino-3,3,5-trifluoro-2,5-dimethyl-2,3,4,5-tetrahydropyridin-2-yl)-4-fluorophenyl)-5-methoxypyrazine-2-carboxamide], the figures for the “Aβ40 reduction, Brain Rat” value in the series with Aβ40 (10 mg/kg p.o.) and in the series with Aβ40 (30 mg/kg p.o.) were 34% and 61%, respectively. Further, the “Aβ40 reduction, Plasma Rat” value came out at 34% with Aβ40 (10 mg/kg p.o.) and 39% in the series with Aβ40 (30 mg/kg p.o.). Besides, the Ki at human BACE1 was 18 nM. Further, the Kp at 3 h in series [1] (10 mg/kg p.o.) is 1.3; in series [1] (30 mg/kg p.o.) it was 1.5.
In the case of `C[C@@]1(F)CC(F)(F)[C@@](C)(c2cc(NC(=O)c3cnc(C(F)F)cn3)ccc2F)N=C1N` [Compound 24, N-(3-((2R,5R)-6-amino-3,3,5-trifluoro-2,5-dimethyl-2,3,4,5-tetrahydropyridin-2-yl)-4-fluorophenyl)-5-(difluoromethyl)pyrazine-2-carboxamide], the figures for the “Aβ40 reduction, Brain Rat” value in the series with Aβ40 (10 mg/kg p.o.) and in the series with Aβ40 (30 mg/kg p.o.) were 15% and 49%, respectively. Also, the figures for the “Aβ40 reduction, Plasma Rat” value in the series with Aβ40 (10 mg/kg p.o.) and in the series with Aβ40 (30 mg/kg p.o.) were 28% and 61%, respectively. In addition, on human BACE1, the Ki is 420 nM. For the same compound, the Kp at 3 h in series [1] (10 mg/kg p.o.) came to 1.39; in series [1] (30 mg/kg p.o.), 1.2.

One may read the Ki as the dissociation constant of the complex between target and ligand, obtained from inhibition or displacement.
